US20180256673A1, “METHODS FOR TREATING FUNGAL INFECTIONS” (priority 2015, published 2018)
≈ marks a conversion by molar mass, not a printed value. Where “and” joins values, the source holds several entries; their conditions need not be identical. Equal values may be shown once. Read-outs that look alike come from different tables or passages of the source.

Experiments:
[1] = tested on: C. glabrata ATCC 90030, ATCC 2001; type: cell-based, Candida glabrata; details: for Plate concentration: SDA, minimum concentration to cleanly inhibit growth
Procedure: (§1) Spontaneous mutant selection. […] Three individual colonies from each strain were used to start cultures in RPMI. […] One milliliter aliquots were spread onto SDA plates containing drug with sterile glass beads. Starting viable count was enumerated by triplicate plating of serial dilutions of the starting inoculum. […] Glycerol stocks of putative mutant colonies were stored at −80° C. […] Spontaneous mutation frequencies were calculated by dividing the number of resistant colonies on a given plate by the starting inoculum plated. A subset of mutants (weighted heavily towards those selected with CMP1) were then evaluated by MIC and sequencing of FKS gene hot spot regions.

[2] = tested on: C. parapsilosis CP02; assay: microbe, parasite or virus in culture; type: cell-based, Candida parapsilosis; details: for MIC: Lodderomyces parapsilosis
[3] = tested on: Candida parapsilosis; assay: Broth microdilution of invasive fungal isolates (CLSI M27-A3/M38-A2); type: cell-based; details: 92 isolates
[4] = tested on: Aspergillus fumigatus; assay: Broth microdilution of invasive fungal isolates (CLSI M27-A3/M38-A2), MEC; type: cell-based; details: 56 isolates
[5] = tested on: azole-resistant Candida albicans R357 strain; assay: microbe, parasite or virus in culture; type: cell-based
[6] = tested on: C. albicans vaginal isolates; assay: Susceptibility testing of VVC clinical isolates at pH 7 and 4 (CLSI M27-A3); type: cell-based, Candida albicans; details: Candida albicans; for MIC: read-out: MIC; for MIC90: 60 isolates, read-out: MIC90
[7] = tested on: Cryptococcus neoformans var. grubii; assay: Broth microdilution of invasive fungal isolates (CLSI M27-A3/M38-A2); type: cell-based; details: 19 isolates
[8] = tested on: C. parapsilosis CP02; type: cell-based, Candida parapsilosis
Procedure: as §1

CC[C@H](C)C[C@H](C)CCCCCCCCC(=O)N[C@H]1C[C@@H](O)[C@@H](NCCN)NC(=O)[C@@H]2[C@@H](O)CCN2C(=O)[C@H]([C@H](O)CCN)NC(=O)[C@H]([C@H](O)[C@@H](O)c2ccc(O)cc2)NC(=O)[C@@H]2C[C@@H](O)CN2C(=O)[C@H]([C@@H](C)O)NC1=O [CAS, caspofungin]
Median mutation frequency ([1]; ATCC 90030): 3.45E−07
Freq. (replicate mutation frequency) ([1]; ATCC 90030, replicate plates 1-3): 4.85E−07 and 3.45E−07 and 2.57E−07
Plate concentration ([1]; ATCC 2001): 0.5 µg/mL
Plate concentration ([1]; ATCC 90030): 0.5 µg/mL
MIC fold-shift ([2]; CP02, WT to P20): 2
MIC ([2]; CP02, CP02 P20-1, selecting drug ANID): 0.5 µg/mL (≈ 0.457 µM)
MIC ([2]; CP02, CP02 P20-1, selecting drug CAS): 1 µg/mL (≈ 0.915 µM)
MIC ([2]; CP02, CP02 P20-1, selecting drug CMP1): 1 µg/mL (≈ 0.915 µM)
MIC ([2]; CP02, read-out: MIC P20, CP02, total population after 20 passages with the selecting drug, MIC of selecting drug): 1 µg/mL
Cumulative % of isolates inhibited at MIC 0.25 μg/mL [3]: (33.7) %
Cumulative % of isolates inhibited at MIC 0.5 μg/mL [3]: (87.0) %
Cumulative % of isolates inhibited at MIC 1 μg/mL [3]: (98.9) %
Cumulative % of isolates inhibited at MIC 2 μg/mL [3]: (100.0) %
Number of isolates inhibited at MIC 0.25 μg/mL [3]: 31
Number of isolates inhibited at MIC 0.5 μg/mL [3]: 49
Number of isolates inhibited at MIC 1 μg/mL [3]: 11
Number of isolates inhibited at MIC 2 μg/mL [3]: 1
MIC50 ([3]; Lodderomyces parapsilosis, read-out: MIC50): 0.5 µg/mL (≈ 0.457 µM)
MIC90 ([3]; Lodderomyces parapsilosis, read-out: MIC90): 1 µg/mL (≈ 0.915 µM)
Cumulative % of isolates inhibited at MEC 0.015 μg/mL [4]: (32.1) %
Cumulative % of isolates inhibited at MEC 0.03 μg/mL [4]: (94.6) %
Cumulative % of isolates inhibited at MEC 0.06 μg/mL [4]: (100.0) %
Number of isolates inhibited at MEC 0.015 μg/mL [4]: 18
Number of isolates inhibited at MEC 0.03 μg/mL [4]: 35
Number of isolates inhibited at MEC 0.06 μg/mL [4]: 3
Susceptibility (CLSI) ([5]; C. albicans R357): S
MIC ([5]; Candida albicans): 0.25 µg/mL (≈ 0.229 µM)
MIC ([6]; 48 h, pH 4, fluconazole-resistant isolate 1, pH 4, 48 h): 0.25 µg/mL (≈ 0.229 µM)
MIC ([6]; 48 h, pH 4, fluconazole-resistant isolate 2, pH 4, 48 h): 1 µg/mL (≈ 0.915 µM)
MIC ([6]; 48 h, pH 4, fluconazole-resistant isolate 3, pH 4, 48 h): 0.5 µg/mL (≈ 0.457 µM)
MIC ([6]; 48 h, pH 4, fluconazole-resistant isolate 4, pH 4, 48 h): 1 µg/mL (≈ 0.915 µM)
MIC ([6]; 48 h, pH 4, fluconazole-resistant isolate 5, pH 4, 48 h): 4 µg/mL (≈ 3.66 µM)
MIC ([6]; 48 h, pH 4, fluconazole-resistant isolate 6, pH 4, 48 h): 1 µg/mL (≈ 0.915 µM)
MIC ([6]; 48 h, pH 4, fluconazole-resistant isolate 7, pH 4, 48 h): 1 µg/mL (≈ 0.915 µM)
MIC ([6]; 48 h, pH 4, fluconazole-resistant isolate 8, pH 4, 48 h): 0.5 µg/mL (≈ 0.457 µM)
MIC ([6]; 48 h, pH 4, fluconazole-resistant isolate 9, pH 4, 48 h): 1 µg/mL (≈ 0.915 µM)
MIC ([6]; 48 h, pH 4, fluconazole-resistant isolate 10, pH 4, 48 h): 1 µg/mL (≈ 0.915 µM)
MIC ([6]; 48 h, pH 7, fluconazole-resistant isolate 1, pH 7, 48 h): 0.5 µg/mL (≈ 0.457 µM)
MIC ([6]; 48 h, pH 7, fluconazole-resistant isolate 2, pH 7, 48 h): 0.5 µg/mL (≈ 0.457 µM)
MIC ([6]; 48 h, pH 7, fluconazole-resistant isolate 3, pH 7, 48 h): 0.5 µg/mL (≈ 0.457 µM)
MIC ([6]; 48 h, pH 7, fluconazole-resistant isolate 4, pH 7, 48 h): 0.5 µg/mL (≈ 0.457 µM)
MIC ([6]; 48 h, pH 7, fluconazole-resistant isolate 5, pH 7, 48 h): 2 µg/mL (≈ 1.83 µM)
MIC ([6]; 48 h, pH 7, fluconazole-resistant isolate 6, pH 7, 48 h): 1 µg/mL (≈ 0.915 µM)
MIC ([6]; 48 h, pH 7, fluconazole-resistant isolate 7, pH 7, 48 h): 0.5 µg/mL (≈ 0.457 µM)
MIC ([6]; 48 h, pH 7, fluconazole-resistant isolate 8, pH 7, 48 h): 0.5 µg/mL (≈ 0.457 µM)
MIC ([6]; 48 h, pH 7, fluconazole-resistant isolate 9, pH 7, 48 h): 2 µg/mL (≈ 1.83 µM)
MIC ([6]; 48 h, pH 7, fluconazole-resistant isolate 10, pH 7, 48 h): 0.5 µg/mL (≈ 0.457 µM)
MIC90 ([6]; pH 4, 24 h): 0.5 µg/mL (≈ 0.457 µM)
MIC90 ([6]; pH 4, 48 h): 1 µg/mL (≈ 0.915 µM)
MIC90 ([6]; pH 7, 24 h): 0.5 µg/mL (≈ 0.457 µM)
MIC90 ([6]; pH 7, 48 h): 1 µg/mL (≈ 0.915 µM)
Cumulative % of isolates inhibited at MIC 8 μg/mL [7]: (21.1) %
Cumulative % of isolates inhibited at MIC >8 μg/mL [7]: (100.0) %
Number of isolates inhibited at MIC 8 μg/mL [7]: 4
Number of isolates inhibited at MIC >8 μg/mL [7]: 15
MIC50 ([7]; Cryptococcus neoformans, read-out: MIC50): 8 µg/mL (≈ 7.32 µM)
MIC90 ([7]; Cryptococcus neoformans, read-out: MIC90): 8 µg/mL (≈ 7.32 µM)
Median mutation frequency [8]: <1.04E−08
Plate concentration ([8]; SDA, minimum concentration to cleanly inhibit growth): 1 µg/mL
Freq. (replicate mutation frequency) ([8]; replicate plates 1-3): <1.04E−08 (2×) and <9.62E−09
